Source: patent US20130287890A1, “INHIBITOR OF THE PRODUCTION OF ADVANCED GLYCATION END PRODUCTS” (UENO FINE CHEMICALS INDUSTRY, LTD., priority 2012, published 2013)

Assays:
pentosidine = assay: Quantitative determination of pentosidine (FSK Pentosidine kit) after reaction at 120° C. for 60 minutes; format: biochemical; details: Test Example 1; for Pentosidine: lysine + arginine 0.2 g each, carbohydrate 3.40 g each, 120° C., 60 minutes
Experimental: Amino acids, carbohydrates and a phosphate buffer solution were charged in a 30 mL glass test tube in each amount shown in Table 1, followed by sealing and stirring. […] The filtrate thus obtained was used as a sample. The amino acids and carbohydrates used are as follows. Using a pentosidine measurement kit “FSK Pentosidine (registered trademark)” (manufactured by Fushimi Pharmaceutical Co., Ltd.), quantitative determination of pentosidine was performed. Thirty (30) or more minutes before use, reagents and pentosidine solid-phase plates were put to room temperature. After dilution of the sample, a 50 μL aliquot of the sample was dispensed to a pentosidine solid plate attached to the kit, and 50 μL of a first antibody solution was dispensed into wells other than the wells for measurement of reagent blank value. After the sample and the antibody solution were mixed by shaking the plate at 300 rpm for 1 minute, the solution was reacted at 37° C. for 1 hour. Next, the reaction solution was discarded, and 200 μL of rinsing fluid was dispensed to wash the plate. The washing was performed for 3 times. After liquid on the plate was removed, 100 μL of a second antibody solution was dispensed into wells other than the wells for measurement of reagent blank value. After the solution was mixed by shaking the plate at 300 rpm for 1 minute, the solution was reacted at 25° C. for 1 hour. Then, the reaction solution was discarded, and the plate was washed for 3 times with 200 μL of rinsing fluid again. Liquid on the plate was removed, and 100 μL of a color coupler was dispensed and left to stand for 10 minutes under a light shielding condition. Finally, 100 μL of a reaction stop solution was dispensed, and within 10 minutes after the dispensing, measurement was performed at main wavelength 450 nm/reference wavelength 630 nm using a micro-plate reader. The concentration of pentosidine was determined using the calibration curve of a pentosidine standard solution, based on measurement values of the sample.

human RAGE [1] = target: T1, human RAGE (Homo sapiens, UniProt Q15109); assay: RAGE agonist activity of reaction samples (120° C., 60 minutes), NF-κB luciferase assay in C6 glioma cells; format: cell-based, rat; details: Test Example 2
T1 construct: human RAGE plasmid (including full-length human RAGE cDNA); expressed in transfected cells; host or cells: C6 glioma cells carrying pNF-κB-Luc plasmid and human RAGE plasmid
Experimental: (§1) Food-derived proteins, carbohydrates and a phosphate buffer solution were charged in a 30 mL glass test tube in each amount shown in Table 6, followed by sealing and stirring, and then the mixture was reacted in an autoclave at 120° C. for 60 minutes. Next, the reactant was fractionated by centrifugation at 3,000 rpm for 3 hours using an ultrafiltration unit (VIVA SPIN 20, manufactured by Sartorius Corporation). The obtained low molecular weight fraction was used as a sample for determination of 3-DG, while the obtained high molecular weight fraction was used as a sample for the determination of fluorescent AGEs, RAGE agonist activity and RAGE antagonist activity. Food-derived proteins and carbohydrates used are as follows:
Using Luciferase Assay System (manufactured by Promega Corporation), evaluation of RAGE agonist activity was performed. (Day 1) According to the methods disclosed in Diabetes, 2006, vol. 55, pp. 2510-2522, C6 glioma cells into which pNF-κB-Luc plasmid (manufactured by Stratagene Corporation) and human RAGE plasmid (including full-length human RAGE cDNA) have been introduced were seeded at 100 μL/well into a 96-well plate and cultured in a CO2 incubator until the cells were confluent. For the culture, 10% FBS/DMEM medium was used. (Day 2) The medium was removed, and after wells were washed with 300 μL of serum-free DMEM medium, 100 μL of 0.1% FBS/DMEM medium was slowly added. Then, the medium was incubated overnight in a CO2 incubator. (Day 3) The sample was diluted using the medium, and 50 μL of the diluted sample was added to each well. AGE-BSA in which AGE was formed with glyceraldehydes (50 μg/mL) was added to a control well. After incubation in a CO2 incubator for 4 hours, the medium was removed and wells were washed 2 times with 300 μL of PBS (−). Then, 25 μL of 1× lysis buffer was added on ice. After the plate was shaken for 15 seconds, 20 μL of lysate was charged in a new white plate. Further 100 μL of a luciferase assay reagent was added, and a […] was measured by a luminometer. Using 5 μL of lysate, quantitative determination of protein was also performed.

human RAGE [2] = target: T1, human RAGE; assay: RAGE antagonist activity of reaction samples (120° C., 60 minutes) mixed with AGE-BSA, NF-κB luciferase assay in C6 glioma cells; format: cell-based, rat; details: Test Example 2
Experimental: as §1
Using Luciferase Assay System (manufactured by Promega Corporation), evaluation of RAGE antagonist activity was performed. (Day 1) According to the methods disclosed in Diabetes, 2006, vol. 55, pp. 2510-2522, C6 glioma cells into which pNF-κB-Luc plasmid (manufactured by Stratagene Corporation) and human RAGE plasmid (including full-length human RAGE cDNA) have been introduced were seeded at 100 μL/well into a 96-well plate and cultured in a CO2 incubator until the cells were confluent. For the culture, 10% FBS/DMEM medium was used. (Day 2) The medium was removed, and after wells were washed with 300 μL of serum-free DMEM medium, 100 μL of 0.1% FBS/DMEM medium was slowly added. Then, the medium was incubated overnight in a CO2 incubator. (Day 3) The sample was diluted using the medium, and 50 μL of the diluted sample, AGE-BSA in which AGE was formed with glyceraldehydes (50 μg/mL) as a control, and the mixture of diluted sample and AGE-BSA were added to wells. After incubation in a CO2 incubator for 4 hours, the medium was removed and wells were washed 2 times with 300 μL of PBS(−). Then, 25 μL of 1× lysis buffer was added on ice. After the plate was shaken for 15 seconds, 20 μl of lysate was charged in a new white plate. Further 100 μL of a luciferase assay reagent was added, and a fluorescence intensity was measured by a luminometer. Using 5 μl of lysate, quantitative determination of protein was also performed.

[3] = gliadin + carbohydrate, protein 0.1 μg/mL, relative to control (AGE-BSA) = 1
[4] = lactalbumin + carbohydrate, protein 10 μg/mL, relative to control (AGE-BSA) = 1
[5] = lactic casein + carbohydrate, protein 1 μg/mL, relative to control (AGE-BSA) = 1
[6] = ovalbumin + carbohydrate, protein 10 μg/mL, relative to control (AGE-BSA) = 1
[7] = soybean casein + carbohydrate, protein 0.1 μg/mL, relative to control (AGE-BSA) = 1
[8] = gliadin + carbohydrate, mixture of sample and AGE-BSA, protein 0.1 μg/mL, relative to control (AGE-BSA) = 1
[9] = lactalbumin + carbohydrate, mixture of sample and AGE-BSA, protein 10 μg/mL, relative to control (AGE-BSA) = 1
[10] = lactic casein + carbohydrate, mixture of sample and AGE-BSA, protein 1 μg/mL, relative to control (AGE-BSA) = 1
[11] = ovalbumin + carbohydrate, mixture of sample and AGE-BSA, protein 10 μg/mL, relative to control (AGE-BSA) = 1
[12] = soybean casein + carbohydrate, mixture of sample and AGE-BSA, protein 0.1 μg/mL, relative to control (AGE-BSA) = 1

T1 sequence (Q15109 23-404): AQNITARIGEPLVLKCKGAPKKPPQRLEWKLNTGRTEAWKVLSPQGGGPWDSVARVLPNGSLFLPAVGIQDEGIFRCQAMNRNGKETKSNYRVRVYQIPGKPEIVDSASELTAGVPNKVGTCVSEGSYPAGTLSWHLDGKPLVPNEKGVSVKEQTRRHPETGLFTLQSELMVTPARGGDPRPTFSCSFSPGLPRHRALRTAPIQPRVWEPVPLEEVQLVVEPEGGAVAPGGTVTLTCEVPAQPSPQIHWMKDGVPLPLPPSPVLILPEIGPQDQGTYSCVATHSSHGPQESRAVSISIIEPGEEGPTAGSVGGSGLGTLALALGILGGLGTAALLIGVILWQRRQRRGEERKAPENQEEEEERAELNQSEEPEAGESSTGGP

SMILES	production of pentosidine (pentosidine; amino acids, compared with the test section 1 containing only sucrose)	Pentosidine (pentosidine)	RAGE agonist activity (human RAGE [1]; [3])	RAGE agonist activity (human RAGE [1]; [4])	RAGE agonist activity (human RAGE [1]; [5])	RAGE agonist activity (human RAGE [1]; [6])	RAGE agonist activity (human RAGE [1]; [7])	RAGE agonist activity (human RAGE [1]; test sections 2, 5 and 11 (ovalbumin, lactalbumin, lactic casein) compared with sections 1, 4 and 10 containing sucrose)	RAGE antagonist activity (human RAGE [2]; [8])	RAGE antagonist activity (human RAGE [2]; [9])	RAGE antagonist activity (human RAGE [2]; [10])	RAGE antagonist activity (human RAGE [2]; [11])	RAGE antagonist activity (human RAGE [2]; [12])	RAGE antagonist activity (human RAGE [2]; test sections 2 and 5 (ovalbumin, lactalbumin) compared with sections 1 and 4 containing sucrose)
OC[C@@H](O)[C@@H](O[C@H]1O[C@H](CO)[C@@H](O)[C@H](O)[C@H]1O)[C@H](O)[C@@H](O)CO [Maltitol]	decreased	3.4 nmol/1 g of amino acid	0.51	0.79	0.51	1.42	0.24	decreased	0.90	0.54	1.42	1.74	0.99	decreased
OC[C@H]1O[C@@](CO)(O[C@H]2O[C@H](CO)[C@@H](O)[C@H](O)[C@H]2O)[C@@H](O)[C@@H]1O [Sucrose, reference compound]	–	8.4 nmol/1 g of amino acid	0.53	0.81	0.53	1.66	0.34	–	1.00	0.58	1.50	1.80	1.01	–
